From patent publication US20090118332A1, “Therapeutic Agents - 551” (AstraZeneca AB, priority 2006, published 2009)

molecular target: T1, human Fatty Acid Synthase (Homo sapiens, UniProt P49327); experiment: Human FAS enzyme assay (decrease in NADPH fluorescence); type: biochemical; conditions: % inhibition at a concentration of 100 μmolar
T1 construct: made in house
Description: Human and Rat FAS Enzyme Assay.
Fatty acid synthase is an enzyme complex that harbours seven enzymatic activities catalysing the reductive synthesis of long chain fatty acids from acetyl CoA and malonyl CoA to palmitate. When acetyl CoA and malonyl CoA are forming palmitate NADPH is consumed forming NADP. Since NADPH is fluorescent but not NADP the reaction can be measured by analysing the decrease in fluorescence.
Compounds were added to a black 384 well plate (Matrix) in a volume of 5 μl consisting of 20% DMSO and 80% Tris buffer pH 7.5, at a top concentration of 1 mM. NADPH, 30 μl of 166.6 μM, formulated in assay buffer (0.1M Tris ph7.5, 0.1 mM EDTA, 1 mM glutathione, 0.05% BSA), was then added to all of the wells of the plate. Fatty acid synthase Human or rat enzyme (0.4 μg, produced in house), dissolved in 20 mM Tris/HCl pH 7.5, 5 mM BOG, 1 mM TCEP, 10% glycerol, 1 mM EDTA, 150 mM NaCl, was then added to the plate in a volume of 10 μl. Enzyme was added to all but the last two columns of the plate, to which, 10 μl of assay buffer was added (0.1M Tris ph7.5, 0.1 mM EDTA, 1 mM glutathione, 0.05% BSA) to provide a no enzyme assay control. Following a 15-minute incubation period, at room temperature, the plates were read on an Envision plate reader using 340 nm excitation and 460 nm emission filters. This served as a time zero background read. Substrates (an equal mix of both malonyl and acetyl CoA) were then added to the plates in a total volume of 5 μl. The concentrations of malonyl and acetyl CoA in the mixture were 500 μM and 150 μM respectively. Both were prepared as 10 mM stock solutions in distilled water and were subsequently diluted to working concentrations in assay buffer. Plates were then incubated for a further 60 minutes, at room temperature, before being read again on the Envision reader using the same parameters as previously used. The data was analysed by subtracting the background time zero data from that generated following the final 60 minute incubate and the percent inhibition compared to the maximum and minimum assay controls was determined. Sigmoid curves were fitted using Origin 7.5 Client software and IC50 values were determined.

T1 sequence (P49327 whole entry): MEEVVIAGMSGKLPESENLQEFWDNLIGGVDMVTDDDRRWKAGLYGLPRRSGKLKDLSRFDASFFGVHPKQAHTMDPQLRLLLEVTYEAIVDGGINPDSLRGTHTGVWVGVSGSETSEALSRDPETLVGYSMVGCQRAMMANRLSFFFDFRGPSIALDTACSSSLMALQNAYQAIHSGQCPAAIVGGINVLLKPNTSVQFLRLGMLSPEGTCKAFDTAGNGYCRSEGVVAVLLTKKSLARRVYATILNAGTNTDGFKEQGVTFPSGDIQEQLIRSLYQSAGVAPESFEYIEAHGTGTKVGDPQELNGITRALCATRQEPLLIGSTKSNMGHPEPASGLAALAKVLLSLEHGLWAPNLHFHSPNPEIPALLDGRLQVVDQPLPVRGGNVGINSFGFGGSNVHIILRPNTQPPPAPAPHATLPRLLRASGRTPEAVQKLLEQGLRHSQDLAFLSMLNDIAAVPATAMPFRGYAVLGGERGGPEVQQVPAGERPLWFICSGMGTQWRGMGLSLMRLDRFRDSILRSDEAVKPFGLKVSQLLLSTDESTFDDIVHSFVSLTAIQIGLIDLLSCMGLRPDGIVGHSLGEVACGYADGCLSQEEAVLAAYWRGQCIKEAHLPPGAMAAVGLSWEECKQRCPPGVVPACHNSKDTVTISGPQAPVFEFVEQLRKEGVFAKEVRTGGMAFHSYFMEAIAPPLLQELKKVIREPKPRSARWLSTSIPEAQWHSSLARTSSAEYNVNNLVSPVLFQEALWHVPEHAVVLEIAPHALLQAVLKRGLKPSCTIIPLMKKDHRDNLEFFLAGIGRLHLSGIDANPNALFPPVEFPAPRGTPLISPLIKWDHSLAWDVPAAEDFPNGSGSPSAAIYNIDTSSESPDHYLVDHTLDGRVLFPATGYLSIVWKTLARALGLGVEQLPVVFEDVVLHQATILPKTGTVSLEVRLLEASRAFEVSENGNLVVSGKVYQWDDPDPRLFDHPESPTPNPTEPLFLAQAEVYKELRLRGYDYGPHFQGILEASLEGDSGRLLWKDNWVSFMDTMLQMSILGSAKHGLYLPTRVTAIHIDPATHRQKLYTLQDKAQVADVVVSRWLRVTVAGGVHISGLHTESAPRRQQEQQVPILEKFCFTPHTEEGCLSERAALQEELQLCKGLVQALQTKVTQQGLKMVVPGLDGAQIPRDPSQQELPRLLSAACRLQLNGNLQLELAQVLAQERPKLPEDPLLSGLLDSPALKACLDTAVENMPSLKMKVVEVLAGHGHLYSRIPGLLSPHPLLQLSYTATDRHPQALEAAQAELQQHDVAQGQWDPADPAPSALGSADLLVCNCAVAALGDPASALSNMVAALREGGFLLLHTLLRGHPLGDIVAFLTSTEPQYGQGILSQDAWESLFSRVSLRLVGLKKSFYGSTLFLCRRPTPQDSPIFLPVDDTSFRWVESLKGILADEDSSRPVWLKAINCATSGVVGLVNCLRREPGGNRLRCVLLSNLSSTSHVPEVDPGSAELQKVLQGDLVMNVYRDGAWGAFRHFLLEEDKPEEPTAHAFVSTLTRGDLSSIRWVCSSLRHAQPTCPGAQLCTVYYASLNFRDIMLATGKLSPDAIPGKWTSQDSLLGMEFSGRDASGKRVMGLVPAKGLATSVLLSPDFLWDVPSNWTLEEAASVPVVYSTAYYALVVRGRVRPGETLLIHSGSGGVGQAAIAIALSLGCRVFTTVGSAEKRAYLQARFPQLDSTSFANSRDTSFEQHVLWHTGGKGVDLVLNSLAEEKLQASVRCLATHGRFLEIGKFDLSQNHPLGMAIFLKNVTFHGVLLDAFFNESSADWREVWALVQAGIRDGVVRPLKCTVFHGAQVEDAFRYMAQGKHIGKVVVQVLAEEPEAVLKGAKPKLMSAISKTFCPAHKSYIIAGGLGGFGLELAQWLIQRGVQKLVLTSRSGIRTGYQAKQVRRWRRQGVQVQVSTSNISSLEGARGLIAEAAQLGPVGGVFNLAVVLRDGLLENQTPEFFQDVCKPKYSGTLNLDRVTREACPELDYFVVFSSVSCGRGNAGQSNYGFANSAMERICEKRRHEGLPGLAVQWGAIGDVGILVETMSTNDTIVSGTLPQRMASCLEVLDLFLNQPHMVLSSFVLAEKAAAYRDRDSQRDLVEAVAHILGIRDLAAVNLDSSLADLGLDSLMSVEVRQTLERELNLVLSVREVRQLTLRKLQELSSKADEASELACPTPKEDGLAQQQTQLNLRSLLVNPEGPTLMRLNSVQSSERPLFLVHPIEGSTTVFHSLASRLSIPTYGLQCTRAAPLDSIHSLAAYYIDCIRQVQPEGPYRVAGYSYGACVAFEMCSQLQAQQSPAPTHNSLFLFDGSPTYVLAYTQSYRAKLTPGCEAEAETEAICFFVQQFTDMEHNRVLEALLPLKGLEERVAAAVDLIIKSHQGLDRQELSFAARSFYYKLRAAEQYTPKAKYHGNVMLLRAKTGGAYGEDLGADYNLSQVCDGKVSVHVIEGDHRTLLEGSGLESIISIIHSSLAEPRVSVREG

| SMILES | inhibition at 100 µM [%] |
| --- | --- |
| Cc1ccc(C(=O)N2CCC(c3ccc(C#N)cc3)CC2)cc1NC(=O)NC1CCCCC1O (racemic) [Example 187, (RS) 1-[5-[4-(4-cyanophenyl)piperidine-1-carbonyl]-2-methyl-phenyl]-3-(2-hydroxycyclohexyl)urea] | 90.4 |
| Cc1ccc(C(=O)N2CCC(c3ccc(C#N)cc3)CC2)cc1NC(=O)N[C@H]1CCCC[C@H]1N (relative stereo) [Example 304, 3-[(cis)-2-aminocyclohexyl]-1-[5-[4-(4-cyanophenyl)piperidine-1-carbonyl]-2-methyl-phenyl]urea] | 92.8 |
| CCS(=O)(=O)N[C@@H]1CCCC[C@@H]1NC(=O)Nc1cc(C(=O)N2CCC(c3ccc(C#N)cc3)CC2)ccc1C (relative stereo) [Example 309, 3-[5-[4-(4-cyanophenyl)piperidine-1-carbonyl]-2-methyl-phenyl]-1-[(cis)-2-(ethylsulfonylamino)cyclohexyl]urea] | 96.7 |
| Cc1ccc(C(=O)N2CCC(c3ccc(C#N)cc3)CC2)cc1NC(=O)N[C@@H]1CCCC[C@H]1NS(=O)(=O)N(C)C (relative stereo) [Example 319, 1-[5-[4-(4-cyanophenyl)piperidine-1-carbonyl]-2-methyl-phenyl]-3-[(trans)-2-(dimethylsulfamoylamino)cyclohexyl]urea] | 84.3 |
| Cc1ccc(C(=O)N2CCC(c3ccc(C#N)cc3)CC2)cc1NC(=O)NC1CN2CCC1CC2 (stereo in doubt) [Example 270, 3-[(8S)-1-azabicyclo[2.2.2]oct-8-yl]-1-[5-[4-(4-cyanophenyl)piperidine-1-carbonyl]-2-methyl-phenyl]urea] | 89.4 |

Second part, the compound after the results:

| inhibition at 100 µM [%] | SMILES |
| --- | --- |
| 87.7 | Cc1ccc(C(=O)N2CCC(c3ccc(C#N)cc3)CC2)cc1NC(=O)NC(C)Cc1c[nH]c2ccccc12 (racemic) [Example 70, (RS)-1-[5-[4-(4-cyanophenyl)piperidine-1-carbonyl]-2-methyl-phenyl]-3-[1-(1H-indol-3-yl)propan-2-yl]urea] |
| 88.6 | Cc1ccc(C(=O)N2CCC(c3ccc(C#N)cc3)CC2)cc1NC(=O)NCC(O)C(F)(F)F (racemic) [Example 195, (RS)-1-[5-[4-(4-cyanophenyl)piperidine-1-carbonyl]-2-methyl-phenyl]-3-(3,3,3-trifluoro-2-hydroxy-propyl)urea] |
| 77.1 | Cc1ccc(C(=O)N2CCC(c3ccc(C#N)cc3)CC2)cc1NC(=O)NC1CCCNC1=O (racemic) [Example 236, (RS)-1-[5-[4-(4-cyanophenyl)piperidine-1-carbonyl]-2-methyl-phenyl]-3-(2-oxo-3-piperidyl)urea] |
| 86.5 | Cc1ccc(C(=O)N2CCC(c3ccc(C#N)cc3)CC2)cc1NC(=O)NC1Cc2cccnc2NC1=O (racemic) [Example 239, (RS)-1-[5-[4-(4-cyanophenyl)piperidine-1-carbonyl]-2-methyl-phenyl]-3-(2-oxo-3,4-dihydro-1H-1,8-naphthyridin-3-yl)urea] |
| 90.9 | Cc1ccc(C(=O)N2CCC(c3ccc(C#N)cc3)CC2)cc1NC(=O)NC(C)COc1ccccc1 (racemic) [Example 253, (RS)-1-[5-[4-(4-cyanophenyl)piperidine-1-carbonyl]-2-methyl-phenyl]-3-(1-phenoxypropan-2-yl)urea] |
| 102 | Cc1ccc(C(=O)N2CCC(c3ccc(C#N)cc3)CC2)cc1NC(=O)NC1CCCN(C)C1 (racemic) [Example 255, (RS)-1-[5-[4-(4-cyanophenyl)piperidine-1-carbonyl]-2-methyl-phenyl]-3-(1-methyl-3-piperidyl)urea] |
| 102 | CCc1ccc(C(=O)N2CCC(c3ccc(C#N)cc3)CC2)cc1NC(=O)NCC1COCCO1 (racemic) [Example 259, (RS)-1-[5-[4-(4-cyanophenyl)piperidine-1-carbonyl]-2-ethyl-phenyl]-3-(1,4-dioxan-2-ylmethyl)urea] |
| 78.8 | Cc1ccc(C(=O)N2CCC(c3ccc(C#N)cc3)CC2)cc1NC(=O)N[C@@H]1CCCC[C@H]1N (relative stereo) [Example 305, 3-[(trans)-2-aminocyclohexyl]-1-[5-[4-(4-cyanophenyl)piperidine-1-carbonyl]-2-methyl-phenyl]urea] |
| 96.1 | Cc1ccc(C(=O)N2CCC(c3ccc(C#N)cc3)CC2)cc1NC(=O)N[C@H]1CCCC[C@H]1NS(C)(=O)=O (relative stereo) [Example 307, 1-[5-[4-(4-cyanophenyl)piperidine-1-carbonyl]-2-methyl-phenyl]-3-[(cis)-2-methanesulfonamidocyclohexyl]urea] |
| 91.5 | CC(=O)N[C@@H]1CCCC[C@@H]1NC(=O)Nc1cc(C(=O)N2CCC(c3ccc(C#N)cc3)CC2)ccc1C (relative stereo) [Example 308, N-[(cis)-2-[[5-[4-(4-cyanophenyl)piperidine-1-carbonyl]-2-methyl-phenyl]carbamoylamino]cyclohexyl]acetamide] |
| 104 | Cc1ccc(C(=O)N2CCC(c3ccc(C#N)cc3)CC2)cc1NC(=O)N[C@H]1CCCC[C@@H]1NS(C)(=O)=O (relative stereo) [Example 315, 1-[5-[4-(4-cyanophenyl)piperidine-1-carbonyl]-2-methyl-phenyl]-3-[(trans)-2-methanesulfonamidocyclohexyl]urea] |
| 94.9 | Cc1ccc(C(=O)N2CCC(c3ccc(C#N)cc3)CC2)cc1NC(=O)N[C@@H]1CCCC[C@@H]1NS(=O)(=O)N(C)C (relative stereo) [Example 317, 1-[5-[4-(4-cyanophenyl)piperidine-1-carbonyl]-2-methyl-phenyl]-3-[(cis)-2-(dimethylsulfamoylamino)cyclohexyl]urea] |

same assay, conditions: FAS enzyme assay, IC50 from fitted sigmoid curves

| SMILES | IC50, inhibition of human Fatty Acid Synthase |
| --- | --- |
| CC(=O)N[C@@H]1CCCC[C@H]1NC(=O)Nc1cc(C(=O)N2CCC(c3ccc(C#N)cc3)CC2)ccc1C (relative stereo) [N-[(trans)-2-[[5-[4-(4-cyanophenyl)piperidine-1-carbonyl]-2-methylphenyl]carbamoylamino]cyclohexyl]acetamide] | do not have IC50s in the range of about 0.001 μM to about 30 μM |
| Cc1ccc(C(=O)N2CCC(O)(c3ccccc3)CC2)cc1NC(=O)NC(C)C [1-[5-(4-hydroxy-4-phenylpiperidine-1-carbonyl)-2-methylphenyl]-3-propan-2-ylurea] | do not have IC50s in the range of about 0.001 μM to about 30 μM |
| Cc1ccc(C(=O)N2CCC(c3ccccc3C#N)CC2)cc1NC(=O)NC(C)C [1-[5-[4-(2-cyanophenyl)piperidine-1-carbonyl]-2-methylphenyl]-3-propan-2-ylurea] | do not have IC50s in the range of about 0.001 μM to about 30 μM |
| Cc1ccc(C(=O)N2CCC(O)(c3ccccc3F)CC2)cc1NC(=O)NC(C)C [1-[5-[4-(2-fluorophenyl)-4-hydroxypiperidine-1-carbonyl]-2-methylphenyl]-3-propan-2-ylurea] | do not have IC50s in the range of about 0.001 μM to about 30 μM |
| COc1ccccc1C1CCN(C(=O)c2ccc(C)c(NC(=O)NC(C)C)c2)CC1 [1-[5-[4-(2-methoxyphenyl)piperidine-1-carbonyl]-2-methylphenyl]-3-propan-2-ylurea] | do not have IC50s in the range of about 0.001 μM to about 30 μM |
